Here are results for 14 molecules from ChEMBL document CHEMBL5465560, “Selectivity Literature for EUbOPEN Chemogenomic Library” (2024).

pIC50: −log10 of the molar value.

Experiment [1] deals with T1, Phosphatidylinositol 4-kinase beta (Homo sapiens, UniProt Q9UBF8). In words: Selectivity interaction (Adapta Assay) EUB0001632a PI4KB. The following applies: at 10 µM.
For experiment [2], the target named is RAC-alpha serine/threonine-protein kinase (Homo sapiens, UniProt P31749). As to the kind of experiment: Selectivity interaction (Rxn Biology Kinase assay) EUB0001632a AKT1. The note with it: at 10 µM.
The target in experiment [3] is Hepatocyte growth factor receptor (Homo sapiens, UniProt P08581). In words: Selectivity interaction (Rxn Biology Kinase assay) EUB0001632a MET. The note with it: at 10 µM.
Experiment [4] deals with Cyclin-dependent kinase 7 (Homo sapiens, UniProt P50613). In words: Selectivity interaction (Ambit KINOMEscan and KiNATiv profiling in Jurkat cells) EUB0000090b CDK7. Format: cell-based. The note with it: at 1 µM.
For experiment [5], the target named is Histone-lysine N-methyltransferase PRDM9 (Homo sapiens) (UniProt Q9NQV7). As to the kind of experiment: Selectivity interaction (Methyltransferase screen (radiometric assays, panel of 8 PRMTs, 21 protein lysine methyltransferases, 3 DNA methyltransferases, and one RNA methyltransferase)) EUB0000271b PRDM9.
In experiment [6] the target is DNA (cytosine-5)-methyltransferase 3A (Homo sapiens) (UniProt Q9Y6K1). In words: Selectivity interaction (Methyltransferase screen (radiometric assays, panel of 8 PRMTs, 21 protein lysine methyltransferases, 3 DNA methyltransferases, and one RNA methyltransferase)) EUB0000271b DNMT3A.
The target of experiment [7] is Serine/threonine-protein kinase Chk1 (Homo sapiens, UniProt O14757). In words: Selectivity interaction (Enzyme panel (AstraZeneca, AlphaScreen, functional assay)) EUB0000621a CHEK1. On the technique in general: Bead proximity is the source of the signal in Alpha formats.
The test system of experiment [8] is Tyrosine-protein kinase ABL1 (Homo sapiens), P00519 [H396P]. As to the kind of experiment: Selectivity interaction (KinomeScan (DiscoverX)) EUB0000229b ABL1. The following applies: at 1 µM.
In experiment [9] the target is Mitogen-activated protein kinase kinase kinase 4 (Homo sapiens) (UniProt Q9Y6R4). In words: Selectivity interaction (KinomeScan (DiscoverX)) EUB0000229b MAP3K4. The note with it: at 10 µM.
Experiment [10] deals with Serine/threonine-protein kinase Chk2 (Homo sapiens) (UniProt O96017). As to the kind of experiment: Selectivity interaction (KinomeScan (DiscoverX)) EUB0000655a CHEK2. The note with it: at 10 µM.
Experiment [11] concerns the target Cyclin-dependent kinase 11B (Homo sapiens) (UniProt P21127). In words: Selectivity interaction (KinomeScan (DiscoverX)) EUB0001079a CDK11B. The note with it: at 1 µM.
The target in experiment [12] is Rho-associated protein kinase 2 (Homo sapiens, UniProt O75116). As to the kind of experiment: Selectivity interaction (Kinase panel (literature)) EUB0001199aCl ROCK2. The following applies: at 1 µM.
Experiment [13] has as its target Mitogen-activated protein kinase 11 (Homo sapiens) (UniProt Q15759). In words: Selectivity interaction (ActivX KiNativ screen (kinase selectivity in THP-1 cell lysates)) EUB0000639a MAPK11. It is filed as subcellular. The following applies: lysate.
The target in experiment [14] is Proto-oncogene tyrosine-protein kinase Src (Homo sapiens, UniProt P12931). As to the kind of experiment: Selectivity interaction (ActivX KiNativ screen (kinase selectivity in THP-1 cell lysates)) EUB0000639a SRC. Format: subcellular. The note with it: lysate.
For experiment [15], the target named is Calcium/calmodulin-dependent protein kinase type 1G (Homo sapiens) (UniProt Q96NX5). As to the kind of experiment: Selectivity interaction (KinomeScan (DiscoverX)) EUB0001049a CAMK1G. The following applies: at 1 µM.
Experiment [16] addresses Serine/threonine-protein kinase MARK2 (Homo sapiens) (UniProt Q7KZI7). In words: Selectivity interaction (KinomeScan (DiscoverX)) EUB0000695a MARK2. The following applies: at 100 nM.
Experiment [17] addresses Mitogen-activated protein kinase 9 (Homo sapiens, UniProt P45984). In words: Selectivity interaction (KinomeScan (DiscoverX)) EUB0000695a MAPK9. The note with it: at 100 nM.
Experiment [18] has as its target T1, Phosphatidylinositol 4-kinase beta. As to the kind of experiment: Selectivity interaction (KinomeScan (DiscoverX)) EUB0000092b PI4KB. The note with it: at 10 µM.
For experiment [19], the target named is Serine/threonine-protein kinase pim-1 (Homo sapiens, UniProt P11309). In words: Selectivity interaction (KinomeScan (DiscoverX)) EUB0000618a PIM1. The note with it: at 10 µM.
Experiment [20] concerns the target Serine/threonine-protein kinase 10 (Homo sapiens) (UniProt O94804). As to the kind of experiment: Selectivity interaction (KinomeScan (DiscoverX)) EUB0000618a STK10. The following applies: at 10 µM.
Experiment [21] addresses T2, Calcium/calmodulin-dependent protein kinase type IV (Homo sapiens) (UniProt Q16566).
T2 sequence (whole entry): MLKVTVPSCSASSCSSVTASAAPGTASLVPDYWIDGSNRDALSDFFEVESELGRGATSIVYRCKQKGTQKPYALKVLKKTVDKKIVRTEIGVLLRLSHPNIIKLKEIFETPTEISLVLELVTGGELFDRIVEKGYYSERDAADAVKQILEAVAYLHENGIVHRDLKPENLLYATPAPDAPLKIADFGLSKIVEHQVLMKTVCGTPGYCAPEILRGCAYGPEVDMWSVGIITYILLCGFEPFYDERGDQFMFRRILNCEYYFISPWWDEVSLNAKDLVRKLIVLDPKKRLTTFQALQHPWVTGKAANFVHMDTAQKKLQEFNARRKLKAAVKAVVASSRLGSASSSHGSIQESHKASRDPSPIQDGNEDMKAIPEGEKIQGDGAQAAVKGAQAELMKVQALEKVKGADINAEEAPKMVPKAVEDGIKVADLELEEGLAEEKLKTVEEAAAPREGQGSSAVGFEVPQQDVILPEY
In words: Selectivity interaction (KinomeScan (DiscoverX)) EUB0000618a CAMK4. The note with it: at 10 µM.

Experiment [22] concerns the target Serine/threonine-protein kinase PAK 2 (Homo sapiens) (UniProt Q13177). In words: Selectivity interaction (Upstate Kinase Profiler service (Millipore)) EUB0000056c PAK2. The following applies: at 1 µM.

Chain of Proto-oncogene tyrosine-protein kinase Src (P12931 2-536 limits assumed): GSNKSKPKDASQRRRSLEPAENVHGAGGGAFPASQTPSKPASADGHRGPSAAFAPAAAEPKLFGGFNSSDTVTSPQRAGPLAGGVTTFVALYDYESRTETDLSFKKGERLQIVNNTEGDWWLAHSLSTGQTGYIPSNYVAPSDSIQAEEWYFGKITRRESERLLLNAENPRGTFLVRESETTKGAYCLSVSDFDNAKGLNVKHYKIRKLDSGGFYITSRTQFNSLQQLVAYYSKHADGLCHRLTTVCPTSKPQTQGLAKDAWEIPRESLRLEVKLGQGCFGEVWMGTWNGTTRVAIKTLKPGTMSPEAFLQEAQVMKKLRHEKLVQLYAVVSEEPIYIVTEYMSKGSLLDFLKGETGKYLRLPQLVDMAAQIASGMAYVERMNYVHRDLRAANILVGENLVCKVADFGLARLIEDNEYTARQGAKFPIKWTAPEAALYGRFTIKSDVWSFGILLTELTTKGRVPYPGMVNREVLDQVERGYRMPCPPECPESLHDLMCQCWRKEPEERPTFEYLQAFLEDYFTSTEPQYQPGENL
Chain of Mitogen-activated protein kinase 11 (Homo sapiens) (Q15759 whole entry): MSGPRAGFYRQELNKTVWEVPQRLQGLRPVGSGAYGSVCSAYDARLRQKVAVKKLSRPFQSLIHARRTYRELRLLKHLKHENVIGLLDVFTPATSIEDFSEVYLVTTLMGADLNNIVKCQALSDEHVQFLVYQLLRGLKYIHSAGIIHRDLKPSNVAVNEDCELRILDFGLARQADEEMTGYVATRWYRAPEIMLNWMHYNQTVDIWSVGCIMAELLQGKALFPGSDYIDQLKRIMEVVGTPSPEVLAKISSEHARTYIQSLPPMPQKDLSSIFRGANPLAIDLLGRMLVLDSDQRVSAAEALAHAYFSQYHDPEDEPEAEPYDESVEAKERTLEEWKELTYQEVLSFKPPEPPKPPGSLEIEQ
T1 sequence (Q9UBF8 2-816 limits assumed): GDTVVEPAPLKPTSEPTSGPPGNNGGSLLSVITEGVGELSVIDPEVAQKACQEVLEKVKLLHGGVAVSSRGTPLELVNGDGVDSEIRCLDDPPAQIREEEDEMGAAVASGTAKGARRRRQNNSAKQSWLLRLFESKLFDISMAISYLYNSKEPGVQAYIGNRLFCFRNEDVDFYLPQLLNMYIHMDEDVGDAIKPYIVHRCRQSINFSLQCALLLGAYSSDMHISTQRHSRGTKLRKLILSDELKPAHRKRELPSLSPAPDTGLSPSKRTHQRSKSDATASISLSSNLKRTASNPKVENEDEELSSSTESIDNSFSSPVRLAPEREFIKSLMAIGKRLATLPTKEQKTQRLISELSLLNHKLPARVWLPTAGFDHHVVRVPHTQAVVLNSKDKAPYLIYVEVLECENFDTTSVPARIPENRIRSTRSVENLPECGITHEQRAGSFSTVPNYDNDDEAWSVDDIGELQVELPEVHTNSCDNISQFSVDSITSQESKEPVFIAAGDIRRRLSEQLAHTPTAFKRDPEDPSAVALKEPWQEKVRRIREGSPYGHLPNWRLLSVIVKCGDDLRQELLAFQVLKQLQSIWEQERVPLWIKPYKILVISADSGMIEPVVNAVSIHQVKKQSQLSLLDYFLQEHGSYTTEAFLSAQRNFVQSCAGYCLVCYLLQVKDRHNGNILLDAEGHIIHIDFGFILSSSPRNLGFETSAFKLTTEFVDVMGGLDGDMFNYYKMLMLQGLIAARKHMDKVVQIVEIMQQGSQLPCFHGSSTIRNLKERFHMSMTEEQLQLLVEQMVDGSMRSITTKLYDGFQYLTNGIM
Chain of DNA (cytosine-5)-methyltransferase 3A (Homo sapiens) (Q9Y6K1 whole entry, looked up): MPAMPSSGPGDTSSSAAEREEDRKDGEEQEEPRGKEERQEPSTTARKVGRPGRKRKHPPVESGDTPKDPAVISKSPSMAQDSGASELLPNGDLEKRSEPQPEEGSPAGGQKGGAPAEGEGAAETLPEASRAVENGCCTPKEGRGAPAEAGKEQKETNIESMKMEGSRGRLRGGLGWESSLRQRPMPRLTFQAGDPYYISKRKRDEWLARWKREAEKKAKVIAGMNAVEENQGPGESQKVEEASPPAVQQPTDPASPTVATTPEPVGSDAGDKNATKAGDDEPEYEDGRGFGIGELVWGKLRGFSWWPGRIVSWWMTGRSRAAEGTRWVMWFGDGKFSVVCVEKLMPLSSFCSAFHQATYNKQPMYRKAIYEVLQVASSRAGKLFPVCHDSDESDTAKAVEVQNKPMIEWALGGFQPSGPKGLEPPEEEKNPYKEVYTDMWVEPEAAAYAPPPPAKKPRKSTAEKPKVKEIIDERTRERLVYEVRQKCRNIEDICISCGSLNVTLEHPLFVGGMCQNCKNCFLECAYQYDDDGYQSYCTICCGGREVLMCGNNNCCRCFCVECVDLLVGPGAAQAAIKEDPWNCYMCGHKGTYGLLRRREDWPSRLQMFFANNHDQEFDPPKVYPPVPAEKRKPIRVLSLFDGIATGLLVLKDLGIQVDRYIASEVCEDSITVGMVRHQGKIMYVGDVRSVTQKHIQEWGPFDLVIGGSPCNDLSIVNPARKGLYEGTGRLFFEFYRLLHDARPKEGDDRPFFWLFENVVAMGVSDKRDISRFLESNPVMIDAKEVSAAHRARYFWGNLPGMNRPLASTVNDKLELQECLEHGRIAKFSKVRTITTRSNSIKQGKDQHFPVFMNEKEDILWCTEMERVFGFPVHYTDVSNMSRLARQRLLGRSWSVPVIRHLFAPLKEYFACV
Chain of Histone-lysine N-methyltransferase PRDM9 (Homo sapiens) (Q9NQV7 whole entry): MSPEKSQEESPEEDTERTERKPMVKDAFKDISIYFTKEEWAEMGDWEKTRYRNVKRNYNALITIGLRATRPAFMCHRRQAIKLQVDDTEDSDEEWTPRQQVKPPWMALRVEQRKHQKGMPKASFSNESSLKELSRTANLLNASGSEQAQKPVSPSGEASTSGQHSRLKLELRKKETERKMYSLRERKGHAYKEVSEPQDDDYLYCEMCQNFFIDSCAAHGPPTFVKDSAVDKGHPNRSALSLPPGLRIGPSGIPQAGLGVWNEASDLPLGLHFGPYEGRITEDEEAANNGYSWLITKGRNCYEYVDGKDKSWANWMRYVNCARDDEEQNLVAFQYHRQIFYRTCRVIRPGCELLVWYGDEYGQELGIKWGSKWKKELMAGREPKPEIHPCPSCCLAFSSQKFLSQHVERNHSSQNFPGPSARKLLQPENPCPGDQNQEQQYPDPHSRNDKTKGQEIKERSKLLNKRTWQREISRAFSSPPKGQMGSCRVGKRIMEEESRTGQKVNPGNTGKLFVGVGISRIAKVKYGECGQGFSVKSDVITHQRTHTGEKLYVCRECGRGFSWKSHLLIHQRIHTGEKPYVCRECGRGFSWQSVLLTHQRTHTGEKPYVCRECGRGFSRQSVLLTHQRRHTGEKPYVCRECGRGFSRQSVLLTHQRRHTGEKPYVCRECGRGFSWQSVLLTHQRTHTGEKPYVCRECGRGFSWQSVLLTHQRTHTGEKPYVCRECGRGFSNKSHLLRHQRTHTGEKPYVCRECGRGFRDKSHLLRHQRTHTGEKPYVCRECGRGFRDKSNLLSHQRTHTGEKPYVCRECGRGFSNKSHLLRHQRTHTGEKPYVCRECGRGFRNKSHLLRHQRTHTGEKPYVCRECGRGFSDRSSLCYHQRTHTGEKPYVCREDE
Chain of Serine/threonine-protein kinase 10 (Homo sapiens) (O94804 whole entry, looked up): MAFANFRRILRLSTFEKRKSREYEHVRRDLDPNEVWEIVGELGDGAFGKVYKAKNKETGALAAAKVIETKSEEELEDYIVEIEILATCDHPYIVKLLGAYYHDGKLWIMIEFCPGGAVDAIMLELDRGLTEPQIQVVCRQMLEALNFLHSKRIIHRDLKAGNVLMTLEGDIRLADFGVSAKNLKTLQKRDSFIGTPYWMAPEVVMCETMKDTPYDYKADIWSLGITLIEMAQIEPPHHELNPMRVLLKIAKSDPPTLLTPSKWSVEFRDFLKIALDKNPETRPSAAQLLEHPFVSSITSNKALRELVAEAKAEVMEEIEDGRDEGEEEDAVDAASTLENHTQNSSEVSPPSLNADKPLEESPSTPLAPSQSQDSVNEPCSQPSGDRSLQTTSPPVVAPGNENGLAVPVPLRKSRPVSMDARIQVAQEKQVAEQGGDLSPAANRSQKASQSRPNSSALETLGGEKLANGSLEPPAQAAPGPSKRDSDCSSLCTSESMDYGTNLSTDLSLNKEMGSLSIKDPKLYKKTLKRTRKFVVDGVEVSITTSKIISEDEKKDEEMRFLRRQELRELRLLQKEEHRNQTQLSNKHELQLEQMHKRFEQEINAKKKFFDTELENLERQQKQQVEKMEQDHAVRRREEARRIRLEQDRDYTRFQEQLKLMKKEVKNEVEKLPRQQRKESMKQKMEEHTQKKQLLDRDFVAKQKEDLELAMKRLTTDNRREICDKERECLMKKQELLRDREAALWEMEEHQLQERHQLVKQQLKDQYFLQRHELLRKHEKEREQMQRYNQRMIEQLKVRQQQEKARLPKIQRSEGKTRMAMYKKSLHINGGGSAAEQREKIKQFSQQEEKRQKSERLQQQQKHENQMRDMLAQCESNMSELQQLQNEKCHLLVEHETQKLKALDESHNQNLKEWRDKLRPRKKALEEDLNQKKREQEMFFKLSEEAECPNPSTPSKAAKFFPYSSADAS
Chain of RAC-alpha serine/threonine-protein kinase (P31749 whole entry): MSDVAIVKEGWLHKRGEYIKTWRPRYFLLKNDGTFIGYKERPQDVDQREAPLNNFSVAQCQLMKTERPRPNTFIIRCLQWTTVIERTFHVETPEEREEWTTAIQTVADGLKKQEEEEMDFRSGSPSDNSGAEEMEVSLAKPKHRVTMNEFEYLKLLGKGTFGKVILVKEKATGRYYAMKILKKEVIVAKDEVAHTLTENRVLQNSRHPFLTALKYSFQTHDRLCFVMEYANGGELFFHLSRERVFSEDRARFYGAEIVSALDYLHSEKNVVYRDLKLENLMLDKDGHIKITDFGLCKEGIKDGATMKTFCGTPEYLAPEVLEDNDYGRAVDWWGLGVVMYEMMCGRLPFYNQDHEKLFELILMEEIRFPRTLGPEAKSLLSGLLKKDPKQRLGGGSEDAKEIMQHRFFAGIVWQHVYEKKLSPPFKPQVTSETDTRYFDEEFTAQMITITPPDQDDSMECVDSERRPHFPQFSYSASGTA

On to `Cn1cc(-n2cnc3c(NCc4nc5cc(Cl)c(Cl)cc5[nH]4)nc(N4CCOCC4)nc32)cn1`, for which the % of inhibition in [1] was -10.8%; in [2], 0.245%; in experiment [3] it was -31.5%.

`CN(C)C/C=C/C(=O)Nc1ccc(C(=O)N2CCCC(Nc3ncc(Cl)c(-c4c[nH]c5ccccc45)n3)C2)cc1` (configuration not stated) showed a % of control in [4] of 28%.

In the case of `Cc1cc(C)cc([C@@H]2c3cc(C)ccc3NC(=O)CN2C(=O)c2ccc(Br)s2)c1`, the % of activity worked out at 102% in experiment [5] (at 1 µM), 97% in experiment [5] (at 10 µM), 99% in experiment [6] (at 1 µM) and 99% in experiment [6] (at 10 µM).

By pIC50 is commonly meant the IC50 on a negative log10 scale, so that one unit is a factor of ten. A higher pIC50 goes with a low IC50. The molecule `Cc1cc([C@@H](C)Nc2ccccc2C(=O)O)c2nc(N3CCOCC3)cc(=O)n2c1` [AZD-6482] gave a pIC50 in experiment [7] of less than 3.00.

On to `COc1cc(N(C)c2ccnc3ccc(C(F)(F)F)cc23)cc(OC)c1OC`, for which the figures for the % binding in experiment [8] and in [9] were 78% and 100%, respectively.

`CN(C)CCOc1ccc(-c2nc(-c3ccncc3)c(-c3ccc4c(c3)CC/C4=N\O)[nH]2)cc1` yielded a % of control in experiment [10] of 100%.

As to `Nc1cnc(N2CCc3cc(S(=O)(=O)Nc4c(F)cc(Cl)cc4F)cc(N4CCCC4=O)c32)nc1` [TP-020n], the % of control in experiment [11] came to 100%.

`CN1Cc2nccc(-c3cn(C)nc3-c3ccc(F)cc3)c2C1=O`: the % of inhibition in experiment [12] was 6%.

Consider `CC[C@@H]1[C@H](F)C(=O)N[C@@H]1COc1nccc2cc(C(N)=O)c(OC)cc12` [ZIMLOVISERTIB], for which the % of inhibition was -7.8% in experiment [13] (at 0.01 µM); -35.7% in experiment [13] (at 0.04 µM); -16.6% in [13] (at 0.2 µM); -3.6% in experiment [13] (at 1 µM); -19.3% in experiment [13] (at 5 µM); -8.5% in experiment [14] (at 0.01 µM). Besides, the % of inhibition in experiment [14] (at 0.04 µM) was -0.2%; in experiment [14] (at 0.2 µM), 0.7%; in experiment [14] (at 1 µM), -11%; in experiment [14] (at 5 µM) it was -13.3%.

Consider `COc1cc(Nc2nc(C)cc(-c3cnn4nc(OC)ccc34)n2)cc(C(F)(F)F)c1`, for which, in experiment [15], the % of control was found to be 95%.

`Cc1cc(F)c(C(=O)Nc2cccc(-c3nncn3C(C)C)n2)cc1-n1cnc(C2CC2)c1`: the % of control in [16] worked out at 100%; in experiment [17] it was 78%.

On to `CCC(=O)N1CCN(c2ccc(-n3c(=O)ccc4cnc5ccc(-c6cnc7ccccc7c6)cc5c43)cc2C(F)(F)F)CC1`, for which, in [18], the % of control is 96%.

Take `O[C@H]1CC[C@H](Nc2ncc3nc(Nc4c(F)cc(F)cc4F)n([C@H]4CCOC4)c3n2)CC1`: the % of control turned out to be 100% in experiment [19], 97% in [20] and 87% in experiment [21].

On to `Cc1ccc(-c2ccc3c(ccc4sc5c(c43)NC[C@@H](C)NC5=O)n2)cn1`, for which, in experiment [22], the % of inhibition amounted to 37%.
